According to ChEMBL document CHEMBL5131475, “Metallo-β-lactamases inhibitor fisetin attenuates meropenem resistance in NDM-1-producing Escherichia coli” (Eur J Med Chem, 2022):
Calls of active or inactive are those of the source. The rule behind the calls is not given here.

How the values were obtained:
[1] = system: Escherichia coli; assay: Antibacterial activity against pET28a-NDM-1 positive Escherichia coli BL21(DE3) isolates assessed as meropenem MIC incubated for 18 to 24 hrs by CLSI based broth microdilution method; format: functional; conditions: time 18-24 hrs
[2] = system: Escherichia coli; assay: Antibacterial activity against pET28a-NDM-1 positive Escherichia coli BL21(DE3) isolates assessed as ampicillin MIC incubated for 18 to 24 hrs by CLSI based broth microdilution method; format: functional; conditions: time 18-24 hrs
[3] = system: Escherichia coli; assay: Antibacterial activity against pET28a-NDM-1 positive Escherichia coli BL21(DE3) isolates assessed as kanamycin MIC incubated for 18 to 24 hrs by CLSI based broth microdilution method; format: functional; conditions: time 18-24 hrs
[4] = system: Escherichia coli; assay: Antibacterial activity against pET28a-NDM-1 positive Escherichia coli BL21(DE3) isolates assessed as tetracycline MIC incubated for 18 to 24 hrs by CLSI based broth microdilution method; format: functional; conditions: time 18-24 hrs
[5] = system: Escherichia coli; assay: Antibacterial activity against pET28a-NDM-1 positive Escherichia coli BL21(DE3) isolates assessed as ciprofloxacin MIC incubated for 18 to 24 hrs by CLSI based broth microdilution method; format: functional; conditions: time 18-24 hrs
[6] = system: Escherichia coli; assay: Antibacterial activity against pET28a-NDM-1 positive Escherichia coli BL21(DE3) isolates assessed as rifampicin MIC incubated for 18 to 24 hrs by CLSI based broth microdilution method; format: functional; conditions: time 18-24 hrs
[7] = system: Escherichia coli; assay: Antibacterial activity against pET28a-NDM-1 positive Escherichia coli BL21(DE3) isolates assessed as colistin MIC incubated for 18 to 24 hrs by CLSI based broth microdilution method; format: functional; conditions: time 18-24 hrs
[8] = system: Escherichia coli; assay: Antibacterial activity against NDM-1 positive Escherichia coli ZC-YN3 isolates assessed as kanamycin MIC incubated for 18 to 24 hrs by CLSI based broth microdilution method; format: functional; conditions: time 18-24 hrs
[9] = system: Escherichia coli; assay: Antibacterial activity against NDM-1 positive Escherichia coli ZC-YN3 isolates assessed as tetracycline MIC incubated for 18 to 24 hrs by CLSI based broth microdilution method; format: functional; conditions: time 18-24 hrs
[10] = system: Escherichia coli; assay: Antibacterial activity against NDM-1 positive Escherichia coli ZC-YN3 isolates assessed as vancomycin MIC incubated for 18 to 24 hrs by CLSI based broth microdilution method; format: functional; conditions: time 18-24 hrs
[11] = system: Escherichia coli; assay: Antibacterial activity against NDM-1 positive Escherichia coli ZC-YN3 isolates assessed as cefotaxime MIC incubated for 18 to 24 hrs by CLSI based broth microdilution method; format: functional; conditions: time 18-24 hrs
[12] = system: Escherichia coli; assay: Antibacterial activity against NDM-1 positive Escherichia coli ZC-YN3 isolates assessed as ciprofloxacin MIC incubated for 18 to 24 hrs by CLSI based broth microdilution method; format: functional; conditions: time 18-24 hrs
[13] = system: Escherichia coli; assay: Antibacterial activity against NDM-1 positive Escherichia coli ZC-YN3 isolates assessed as spectinomycin MIC incubated for 18 to 24 hrs by CLSI based broth microdilution method; format: functional; conditions: time 18-24 hrs
[14] = system: Escherichia coli; assay: Antibacterial activity against NDM-1 positive Escherichia coli ZC-YN3 isolates assessed as streptomycin MIC incubated for 18 to 24 hrs by CLSI based broth microdilution method; format: functional; conditions: time 18-24 hrs
[15] = system: Escherichia coli; assay: Antibacterial activity against NDM-1 positive Escherichia coli ZC-YN3 isolates assessed as imipenem MIC incubated for 18 to 24 hrs by CLSI based broth microdilution method; format: functional; conditions: time 18-24 hrs
[16] = system: Escherichia coli; assay: Antibacterial activity against NDM-1 negative Escherichia coli ATCC25922 isolates assessed as meropenem MIC incubated for 18 to 24 hrs by CLSI based broth microdilution method; format: functional; conditions: time 18-24 hrs
[17] = system: Escherichia coli; assay: Synergistic antibacterial activity against pET28a NDM-1 positive Escherichia coli BL21(DE3) isolates assessed as fractional Inhibitory concentration index incubated for 18 to 24 hrs in presence of tetracycline by CLSI based broth microdilution method; format: functional; conditions: time 18-24 hrs
[18] = system: Escherichia coli; assay: Synergistic antibacterial activity against pET28a NDM-1 positive Escherichia coli BL21(DE3) isolates assessed as fractional Inhibitory concentration index incubated for 18 to 24 hrs in presence of florfenicol by CLSI based broth microdilution method; format: functional; conditions: time 18-24 hrs
[19] = system: Escherichia coli; assay: Synergistic antibacterial activity against pET28a NDM-1 positive Escherichia coli BL21(DE3) isolates assessed as fractional Inhibitory concentration index incubated for 18 to 24 hrs in presence of ciprofloxacin by CLSI based broth microdilution method; format: functional; conditions: time 18-24 hrs
[20] = system: Escherichia coli; assay: Synergistic antibacterial activity against pET28a NDM-1 positive Escherichia coli BL21(DE3) isolates assessed as fractional Inhibitory concentration index incubated for 18 to 24 hrs in presence of rifampicin by CLSI based broth microdilution method; format: functional; conditions: time 18-24 hrs
[21] = system: Escherichia coli; assay: Synergistic antibacterial activity against NDM-1 positive Escherichia coli ZC-YN3 isolates assessed as fractional Inhibitory concentration index incubated for 18 to 24 hrs in presence of tetracycline by CLSI based broth microdilution method; format: functional; conditions: time 18-24 hrs
[22] = system: Escherichia coli; assay: Synergistic antibacterial activity against NDM-1 positive Escherichia coli ZC-YN3 isolates assessed as fractional Inhibitory concentration index incubated for 18 to 24 hrs in presence of spectinomycin by CLSI based broth microdilution method; format: functional; conditions: time 18-24 hrs
[23] = system: Escherichia coli; assay: Synergistic antibacterial activity against NDM-1 positive Escherichia coli ZC-YN3 isolates assessed as fractional Inhibitory concentration index incubated for 18 to 24 hrs in presence of streptomycin by CLSI based broth microdilution method; format: functional; conditions: time 18-24 hrs
[24] = system: Escherichia coli; assay: Synergistic antibacterial activity against NDM-1 positive Escherichia coli ZC-YN3 isolates assessed as fractional Inhibitory concentration index incubated for 18 to 24 hrs in presence of imipenem by CLSI based broth microdilution method; format: functional; conditions: time 18-24 hrs
[25] = system: Escherichia coli; assay: Synergistic antibacterial activity against NDM-1 positive Escherichia coli ZC-YN3 isolates assessed as fractional Inhibitory concentration index incubated for 18 to 24 hrs in presence of colistin by CLSI based broth microdilution method; format: functional; conditions: time 18-24 hrs
[26] = system: Escherichia coli; assay: Synergistic antibacterial activity against NDM-1 positive MCR1 carrying Escherichia coli ZJ487 isolates assessed as fractional Inhibitory concentration index incubated for 18 to 24 hrs in presence of meropenem by CLSI based broth microdilution method; format: functional; conditions: time 18-24 hrs
[27] = system: Escherichia coli; assay: Synergistic antibacterial activity against NDM-1 negative Escherichia coli ATCC25922 isolates assessed as fractional Inhibitory concentration index incubated for 18 to 24 hrs in presence of meropenem by CLSI based broth microdilution method; format: functional; conditions: time 18-24 hrs
[28] = system: Escherichia coli; assay: Bactericidal activity against pET28a-NDM-1 producing Escherichia coli BL21(DE3) at 32 ug/ml measured within 3 hrs in presence of meropenem by time kill curve assay; format: functional, organism-based; conditions: dose 32.0 µg/ml
[29] = system: Mus musculus; assay: Antibacterial activity in BALB/c mouse infected with NDM-1 positive Escherichia coli ZJ487 assessed as increase in survival rate at 10 mg/kg, sc administered every 12 hrs and measured after 96 hrs post infection; format: functional
[30] = system: Mus musculus; assay: Synergistic antibacterial activity in BALB/c mouse infected with NDM-1 positive Escherichia coli ZJ487 assessed as increase in survival rate at 50 mg/kg, sc administered every 12 hrs and measured after 96 hrs post infection in presence of meropenem; format: functional
[31] = system: Bacteria; assay: Binding affinity to NDM-1 M248A mutant (unknown origin) assessed as binding free energy by fluorescence quenching method
[32] = system: Bacteria; assay: Inhibition of NDM-1 V73A mutant activity (unknown origin) in presence of zinc ion
[33] = system: Mus musculus; assay: Antibacterial activity in BALB/c mouse infected with NDM-1 positive Escherichia coli ZJ487 assessed as mouse death rate at 50 mg/kg, sc administered every 12 hrs and measured after 96 hrs post infection; format: functional
[34] = system: Bacteria
Description: Binding affinity to NDM-1 M248A mutant (unknown origin) assessed as binding constant by fluorescence quenching method

Work on `O=c1c(O)c(-c2ccc(O)c(O)c2)oc2cc(O)ccc12` [FISETIN] yielded an MIC [1] of 4.67 µg/mL, an MIC [2] of 683 µg/mL and an MIC [3] of 512 µg/mL. It also gave an MIC [4] of 427 µg/mL, an MIC [5] of 341 µg/mL and an MIC [6] of 853 µg/mL. It also gave an MIC [7] of 1.67 µg/mL, an MIC [8] of 853 µg/mL and an MIC [9] of 128 µg/mL. It also gave an MIC [10] of 427 µg/mL, an MIC [11] of 512 µg/mL and an MIC [12] of 6.67 µg/mL. The MIC [13] was 853 µg/mL, the MIC [14] was 256 µg/mL and the MIC [15] was 6.67 µg/mL. For the same compound, the MIC [16] was 0.01 µg/mL, the “fractional inhibitory concentration index (FICI)” value [17] was 0.96 and the “fractional inhibitory concentration index (FICI)” value [18] was 0.79. The “fractional inhibitory concentration index (FICI)” value [19] was 0.96, the “fractional inhibitory concentration index (FICI)” value [20] was 0.96 and the “fractional inhibitory concentration index (FICI)” value [21] was 1.13. For the same compound, the “fractional inhibitory concentration index (FICI)” value [22] was 1.13, the “fractional inhibitory concentration index (FICI)” value [23] was 1.13 and the “fractional inhibitory concentration index (FICI)” value [24] was 0.38. The “fractional inhibitory concentration index (FICI)” value [25] was 1.13, the “fractional inhibitory concentration index (FICI)” value [26] was 0.38 and the “fractional inhibitory concentration index (FICI)” value [27] was 1.13. The Activity [28] was “Active”, the Activity [29] was 20% and the Activity [30] was 60%. For the same compound, the Activity [31] was -16.2 kcal/mol, the inhibition [32] was “Active” and the Activity [33] was 90%. The Ka [34] was 7.39 10^5L/mol.
